This is an account of results in US20040242904A1, “Novel sordarin derivative isolated from culture fermentations and functions as an antifungal agent” (priority 2001, published 2004).

Experiment [1] concerns the target T1, C. glabrata/SIII (S. cerevisiae strain expressing C. glabrata eEF2) (Candida glabrata, UniProt Q6FYA7).
T1 construct: S. cerevisiae strains expressing full length heterologous eEF2s; expressed in transfected cells; host or cells: S. cerevisiae Δeft1 Δeft2 deletion strain YEFD12h
Put plainly: SwordIII growth inhibition assay, C. glabrata/SIII strain. It is filed as cell-based. The source says: (§1) Sordarin and its derivatives bind to the eEF2-ribosome-nucleotide complex in sensitive fungi. Through different in vitro assays using purified components from human, yeast and plant cells, it has been shown that the selective sensitivity to sordarin and its derivatives is dependent on fungal eEF2. The fungal specificity of the sordarin makes eEF2 an attractive anti-infective target. (J Biol Chem. 1998, Feb 6; 273(6):3148-51).
(§2) Specifically, natural products are screened which show a differential activity between the human control and the other strains, although a 100% differential is not required in the initial discovery effort. It may be possible to observe hits solely against the fungal eEF2s, and/or the protozoal eEF2s. In sum, SWORDIII is designed to identify inhibitors of fungal and protozoal eEF2s to provide opportunities for developing anti-infective agents with a unique and selective mechanism of action.
(§3) For this reason, the eEF2 encoding genes from different organisms and several species of pathogenic fungi have been cloned, characterized and expressed in S. cerevisiae at Merck Research Laboratory, as previously described (Microbiology 147:383-90, 2001). Site directed mutagenesis of the C. parapsilosis gene encoding eEF2 to create S521Y, N523S single mutants and the S521Y, N523S double mutant was accomplished by the PCR overlap extension technique (Gene 77:51-59, 1989). […]

The test system of experiment [2] is C. albicans in vitro translation. Put plainly: In vitro translation assay, C. albicans. It is filed as biochemical. The settings on record: average of three independent experiments, lower limit of sensitivity about 0.005 μg/ml. On the procedure: (§4) In vitro translation assays were performed as described in Shastry, et al. Microbiology, 2001, 147(2):383-90. The IC50 values are the average of three independent experiments. The lower limit of sensitivity is about 0.005 μg/ml.

Experiment [3] deals with Human/SIII (S. cerevisiae strain expressing human eEF2) (UniProt P13639, cells depend on it, species not given). Put plainly: SwordIII growth inhibition assay, Human/SIII strain. It is filed as cell-based.
From the text: as §1, §2, §3

Experiment [4] relates to C. glabrata in vitro translation. Put plainly: In vitro translation assay, C. glabrata. The settings on record: average of three independent experiments. Type of experiment: biochemical. On the procedure:
as §4

For experiment [5], the target named is C. neoformans/SIII (S. cerevisiae strain expressing C. neoformans eEF2) (Cryptococcus neoformans, UniProt Q9HFZ8). Put plainly: SwordIII growth inhibition assay, C. neoformans/SIII strain. Type of experiment: cell-based.
From the text: as §1, §2, §3

The test system of experiment [6] is C. neoformans in vitro translation. Put plainly: In vitro translation assay, C. neoformans. Type of experiment: biochemical. The settings on record: average of three independent experiments. As to the method: as §4
Experiment [7] relates to S. cerevisiae in vitro translation. Put plainly: In vitro translation assay, S. cerevisiae. Type of experiment: biochemical. To be noted: average of three independent experiments, lower limit of sensitivity about 0.005 μg/ml. On the procedure:
as §4

The target in experiment [8] is E. tenella/SIII (S. cerevisiae strain expressing E. tenella eEF2) (Eimeria tenella, UniProt A0A184W4F4). Put plainly: SwordIII growth inhibition assay, E. tenella/SIII strain. It is filed as cell-based.
From the text: as §1, §2, §3

Experiment [9] concerns the target T2, S. cerevisiae/SIII (S. cerevisiae strain, S. cerevisiae eEF2) (Saccharomyces cerevisiae, UniProt P32324).
T2 construct: expressed in transfected cells; host or cells: S. cerevisiae Δeft1 Δeft2 deletion strain YEFD12h
Put plainly: SwordIII growth inhibition assay, S. cerevisiae/SIII strain. It is filed as cell-based.
From the text: as §1, §2, §3

For experiment [10], the target named is C. krusei/SIII (S. cerevisiae strain expressing C. krusei eEF2) (Pichia kudriavzevii, UniProt A0A2U9R6P9). Put plainly: SwordIII growth inhibition assay, C. krusei/SIII strain. Type of experiment: cell-based.
From the text: as §1, §2, §3

The test system of experiment [11] is C. parapsilosis in vitro translation. Put plainly: In vitro translation assay, C. parapsilosis. It is filed as biochemical. The settings on record: average of three independent experiments. On the procedure:
as §4

For experiment [12], the target named is A. fumigatus/SIII (S. cerevisiae strain expressing A. fumigatus eEF2) (Aspergillus fumigatus, UniProt Q4X0G7). Put plainly: SwordIII growth inhibition assay, A. fumigatus/SIII strain. It is filed as cell-based.
From the text: as §1, §2, §3

Experiment [13] deals with C. lusitaniae/SIII (S. cerevisiae strain expressing C. lusitaniae eEF2) (Clavispora lusitaniae, UniProt C4YCF8). Put plainly: SwordIII growth inhibition assay, C. lusitaniae/SIII strain. It is filed as cell-based.
From the text: as §1, §2, §3

Experiment [14] deals with A. nidulans in vitro translation. Put plainly: In vitro translation assay, A. nidulans. Type of experiment: biochemical. The settings on record: average of three independent experiments. As to the method: as §4
Experiment [15] has as its system C. krusei in vitro translation. Put plainly: In vitro translation assay, C. krusei. To be noted: average of three independent experiments. It is filed as biochemical. As to the method: as §4
Experiment [16] concerns C. guilliermondi in vitro translation. Put plainly: In vitro translation assay, C. guilliermondi. It is filed as biochemical. To be noted: average of three independent experiments, lower limit of sensitivity about 0.005 μg/ml. On the procedure:
as §4

Experiment [17] deals with C. lusitaniae in vitro translation. Put plainly: In vitro translation assay, C. lusitaniae. It is filed as biochemical. To be noted: average of three independent experiments. As to the method:
as §4

The mark [18] stands for this setting: SC medium, 29° C., approximately 16 hours, read-out: IC50 (μg/ml).
Setting [19] is: read-out: IC50 (μg/ml), SC medium, 29° C., approximately 16 hours.

≈ marks a conversion by molar mass, not a printed value. Read-outs that look alike come from different tables or passages of the source. A value given as a limit tells only on which side of the number the result lay.

Chain of A. fumigatus/SIII (S. cerevisiae strain expressing A. fumigatus eEF2) (Q4X0G7 1-839, change not shown): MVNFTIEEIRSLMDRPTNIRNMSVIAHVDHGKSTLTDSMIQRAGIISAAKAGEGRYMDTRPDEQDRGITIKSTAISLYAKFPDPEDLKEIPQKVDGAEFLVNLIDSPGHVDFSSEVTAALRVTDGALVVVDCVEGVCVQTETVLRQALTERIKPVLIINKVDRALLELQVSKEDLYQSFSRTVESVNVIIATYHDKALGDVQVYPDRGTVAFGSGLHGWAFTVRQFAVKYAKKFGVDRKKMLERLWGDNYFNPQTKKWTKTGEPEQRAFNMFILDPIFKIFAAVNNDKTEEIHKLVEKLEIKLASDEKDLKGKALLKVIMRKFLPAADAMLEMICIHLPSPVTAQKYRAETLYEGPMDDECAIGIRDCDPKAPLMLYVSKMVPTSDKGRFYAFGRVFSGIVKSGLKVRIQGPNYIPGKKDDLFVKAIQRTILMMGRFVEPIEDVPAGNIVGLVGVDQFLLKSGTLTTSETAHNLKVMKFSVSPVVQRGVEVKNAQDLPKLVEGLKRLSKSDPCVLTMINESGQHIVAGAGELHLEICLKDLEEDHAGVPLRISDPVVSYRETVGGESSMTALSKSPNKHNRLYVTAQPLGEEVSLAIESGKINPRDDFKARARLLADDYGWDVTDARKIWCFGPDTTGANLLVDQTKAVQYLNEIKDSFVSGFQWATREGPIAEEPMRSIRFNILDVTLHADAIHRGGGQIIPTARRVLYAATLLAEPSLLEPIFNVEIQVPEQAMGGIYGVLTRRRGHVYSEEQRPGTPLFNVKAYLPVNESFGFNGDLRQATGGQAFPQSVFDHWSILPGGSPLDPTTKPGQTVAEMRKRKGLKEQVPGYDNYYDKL
Chain of C. neoformans/SIII (S. cerevisiae strain expressing C. neoformans eEF2) (Q9HFZ8 1-838, change not shown): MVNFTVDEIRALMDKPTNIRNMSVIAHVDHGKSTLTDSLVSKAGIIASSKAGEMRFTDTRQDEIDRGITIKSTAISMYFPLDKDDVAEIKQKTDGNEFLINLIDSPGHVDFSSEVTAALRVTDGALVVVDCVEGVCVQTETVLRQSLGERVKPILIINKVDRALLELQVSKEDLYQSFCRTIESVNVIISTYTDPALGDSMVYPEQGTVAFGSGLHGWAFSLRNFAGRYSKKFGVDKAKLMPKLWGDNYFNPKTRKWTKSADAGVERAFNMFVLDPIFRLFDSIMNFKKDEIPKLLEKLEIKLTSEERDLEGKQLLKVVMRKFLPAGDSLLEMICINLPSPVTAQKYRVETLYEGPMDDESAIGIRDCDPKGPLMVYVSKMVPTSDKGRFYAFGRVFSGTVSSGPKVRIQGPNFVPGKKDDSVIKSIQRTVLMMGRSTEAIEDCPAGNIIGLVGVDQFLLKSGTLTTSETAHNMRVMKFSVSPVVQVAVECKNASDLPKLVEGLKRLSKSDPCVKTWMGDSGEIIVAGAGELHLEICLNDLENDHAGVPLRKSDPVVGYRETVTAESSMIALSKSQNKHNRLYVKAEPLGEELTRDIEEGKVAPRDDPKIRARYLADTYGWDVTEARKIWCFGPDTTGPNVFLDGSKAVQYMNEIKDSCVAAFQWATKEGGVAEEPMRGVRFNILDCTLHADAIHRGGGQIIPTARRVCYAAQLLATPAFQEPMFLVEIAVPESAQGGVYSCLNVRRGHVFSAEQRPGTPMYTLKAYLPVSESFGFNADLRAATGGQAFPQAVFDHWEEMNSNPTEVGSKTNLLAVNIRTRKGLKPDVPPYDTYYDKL
Chain of C. lusitaniae/SIII (S. cerevisiae strain expressing C. lusitaniae eEF2) (C4YCF8 1-830, change not shown): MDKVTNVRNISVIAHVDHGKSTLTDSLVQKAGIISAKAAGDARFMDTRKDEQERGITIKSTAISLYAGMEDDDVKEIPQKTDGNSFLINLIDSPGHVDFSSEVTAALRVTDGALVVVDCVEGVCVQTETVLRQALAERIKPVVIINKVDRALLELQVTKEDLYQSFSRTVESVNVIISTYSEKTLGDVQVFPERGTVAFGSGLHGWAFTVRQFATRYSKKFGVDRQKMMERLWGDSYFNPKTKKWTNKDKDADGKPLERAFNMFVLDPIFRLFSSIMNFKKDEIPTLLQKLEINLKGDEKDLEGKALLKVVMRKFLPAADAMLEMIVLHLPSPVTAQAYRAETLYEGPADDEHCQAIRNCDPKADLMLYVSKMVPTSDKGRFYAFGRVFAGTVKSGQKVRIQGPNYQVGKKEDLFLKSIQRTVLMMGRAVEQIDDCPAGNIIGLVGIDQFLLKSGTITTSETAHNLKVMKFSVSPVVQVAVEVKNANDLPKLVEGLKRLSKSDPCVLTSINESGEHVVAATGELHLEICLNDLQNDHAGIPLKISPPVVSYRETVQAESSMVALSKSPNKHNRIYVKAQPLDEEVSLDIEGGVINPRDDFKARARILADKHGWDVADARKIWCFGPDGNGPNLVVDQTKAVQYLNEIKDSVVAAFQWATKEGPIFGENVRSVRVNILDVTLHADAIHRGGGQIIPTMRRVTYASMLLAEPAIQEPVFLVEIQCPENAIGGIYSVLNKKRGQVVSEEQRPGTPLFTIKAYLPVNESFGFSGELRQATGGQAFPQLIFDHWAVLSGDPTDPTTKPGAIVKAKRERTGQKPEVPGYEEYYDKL
Chain of E. tenella/SIII (S. cerevisiae strain expressing E. tenella eEF2) (A0A184W4F4 1-832, change not shown): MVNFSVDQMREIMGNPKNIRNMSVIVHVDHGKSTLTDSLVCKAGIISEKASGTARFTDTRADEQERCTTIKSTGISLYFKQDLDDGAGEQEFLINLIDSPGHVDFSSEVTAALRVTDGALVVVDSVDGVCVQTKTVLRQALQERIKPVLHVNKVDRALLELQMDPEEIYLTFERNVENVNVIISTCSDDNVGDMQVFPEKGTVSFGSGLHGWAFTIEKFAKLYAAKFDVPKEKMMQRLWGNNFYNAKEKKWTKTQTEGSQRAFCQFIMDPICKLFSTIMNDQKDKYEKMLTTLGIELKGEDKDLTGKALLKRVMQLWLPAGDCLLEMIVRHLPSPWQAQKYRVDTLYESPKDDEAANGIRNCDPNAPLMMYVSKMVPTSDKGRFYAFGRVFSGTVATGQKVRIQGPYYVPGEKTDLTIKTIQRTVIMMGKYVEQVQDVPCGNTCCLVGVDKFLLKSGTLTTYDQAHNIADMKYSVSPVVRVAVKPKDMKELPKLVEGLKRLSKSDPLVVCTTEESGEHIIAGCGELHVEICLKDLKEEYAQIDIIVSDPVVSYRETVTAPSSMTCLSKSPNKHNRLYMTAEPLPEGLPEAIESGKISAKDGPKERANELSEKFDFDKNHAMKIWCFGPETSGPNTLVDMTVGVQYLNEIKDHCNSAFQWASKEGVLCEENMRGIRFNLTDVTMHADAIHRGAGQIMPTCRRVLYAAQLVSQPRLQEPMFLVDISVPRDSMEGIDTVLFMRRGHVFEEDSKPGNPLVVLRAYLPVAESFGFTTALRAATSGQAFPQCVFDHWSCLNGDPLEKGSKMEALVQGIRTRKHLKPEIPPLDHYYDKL
T2 sequence (P32324 whole entry): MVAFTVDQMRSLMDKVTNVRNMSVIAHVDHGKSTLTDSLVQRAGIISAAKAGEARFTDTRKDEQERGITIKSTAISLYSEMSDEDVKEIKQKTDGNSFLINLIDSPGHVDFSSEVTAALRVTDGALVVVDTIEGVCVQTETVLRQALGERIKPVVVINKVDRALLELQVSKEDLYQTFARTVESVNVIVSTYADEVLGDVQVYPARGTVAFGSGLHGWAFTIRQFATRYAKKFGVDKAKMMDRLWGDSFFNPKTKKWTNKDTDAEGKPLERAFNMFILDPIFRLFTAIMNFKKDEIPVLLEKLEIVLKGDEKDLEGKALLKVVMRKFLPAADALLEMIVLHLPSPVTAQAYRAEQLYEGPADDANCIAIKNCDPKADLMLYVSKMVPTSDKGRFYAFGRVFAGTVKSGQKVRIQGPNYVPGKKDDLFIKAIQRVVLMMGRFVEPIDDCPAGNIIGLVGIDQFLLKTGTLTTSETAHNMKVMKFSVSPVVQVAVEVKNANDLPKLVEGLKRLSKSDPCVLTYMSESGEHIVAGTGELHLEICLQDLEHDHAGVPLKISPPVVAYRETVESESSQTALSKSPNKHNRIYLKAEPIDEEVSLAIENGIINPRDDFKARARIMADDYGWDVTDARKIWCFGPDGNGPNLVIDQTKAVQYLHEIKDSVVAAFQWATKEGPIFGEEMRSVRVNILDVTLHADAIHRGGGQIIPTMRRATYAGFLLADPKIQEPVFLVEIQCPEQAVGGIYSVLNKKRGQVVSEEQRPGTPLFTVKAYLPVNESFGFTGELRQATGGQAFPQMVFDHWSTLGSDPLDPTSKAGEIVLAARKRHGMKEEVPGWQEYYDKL
Chain of C. krusei/SIII (S. cerevisiae strain expressing C. krusei eEF2) (A0A2U9R6P9 1-830, change not shown): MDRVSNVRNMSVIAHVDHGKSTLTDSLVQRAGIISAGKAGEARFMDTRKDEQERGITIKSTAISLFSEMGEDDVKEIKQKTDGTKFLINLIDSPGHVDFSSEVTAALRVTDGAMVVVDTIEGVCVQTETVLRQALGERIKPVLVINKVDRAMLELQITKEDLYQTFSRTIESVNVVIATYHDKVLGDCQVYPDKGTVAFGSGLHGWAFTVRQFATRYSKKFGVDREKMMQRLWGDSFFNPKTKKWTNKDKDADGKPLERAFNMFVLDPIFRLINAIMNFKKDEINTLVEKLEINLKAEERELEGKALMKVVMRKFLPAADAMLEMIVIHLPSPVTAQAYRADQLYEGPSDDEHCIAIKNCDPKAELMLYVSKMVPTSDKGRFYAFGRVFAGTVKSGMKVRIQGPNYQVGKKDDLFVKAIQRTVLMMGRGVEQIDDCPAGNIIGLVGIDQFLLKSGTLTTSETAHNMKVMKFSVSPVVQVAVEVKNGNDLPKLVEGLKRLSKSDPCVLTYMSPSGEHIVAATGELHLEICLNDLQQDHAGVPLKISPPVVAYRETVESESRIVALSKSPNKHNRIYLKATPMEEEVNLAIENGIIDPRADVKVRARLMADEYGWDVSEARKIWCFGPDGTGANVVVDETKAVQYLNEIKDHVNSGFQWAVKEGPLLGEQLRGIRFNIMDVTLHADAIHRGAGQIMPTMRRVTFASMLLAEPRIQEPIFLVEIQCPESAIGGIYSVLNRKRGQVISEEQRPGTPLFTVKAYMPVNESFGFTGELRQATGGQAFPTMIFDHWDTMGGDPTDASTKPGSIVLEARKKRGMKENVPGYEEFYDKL

With `CO[C@H]1[C@@H](O)[C@H](O)[C@H](OC[C@@]23C[C@@H]4[C@H](C)CC[C@H]4[C@@]4(C=O)CC2C=C(C(C)C)[C@@]34C(=O)O)O[C@@H]1C` [Sordarin], the IC50 in [1] is 12.7 µM; in experiment [2] it was 0.006 µg/mL (≈ 0.0122 µM); in experiment [4], 0.036 µg/mL (≈ 0.0731 µM); in experiment [5] (setting [18]), more than 203 µM; in [6], 0.2 µg/mL (≈ 0.406 µM); in [7] it was 0.006 µg/mL (≈ 0.0122 µM). Moreover, the IC50 in experiment [8] (setting [18]) was more than 203 µM; in experiment [9] it was 0.386 µM; in experiment [10] (setting [18]) it was more than 203 µM; in experiment [11], more than 100 µg/mL; in experiment [12] (setting [18]), more than 203 µM; in experiment [13] (setting [18]), more than 203 µM. In addition, the “IC50” value is 2.6 µg/mL (≈ 5.28 µM) in experiment [14], more than 100 µg/mL in [15], 0.01 µg/mL (≈ 0.0203 µM) in experiment [16] and more than 100 µg/mL in experiment [17]. Moreover, in [3] (setting [18]), the GI50 was more than 203 µM.
In the case of `COC1C(C)OC(OCC23CC4C(C)CCC4C4(C=O)CC2C=C(C(C)C)C43C(=O)O)C(O)C12OC(=O)C(CCCCCCCC(=O)O)O2` (stereo not shown) [The Compound of Formula I], the IC50 in experiment [1] is 7.24 µM; in experiment [2], 0.006 µg/mL; in experiment [4], 0.015 µg/mL; in experiment [5] (setting [19]), 7.24 µM; in [6], 0.02 µg/mL; in experiment [7], 0.006 µg/mL. Moreover, the IC50 in experiment [8] (setting [19]) is more than 29 µM; in experiment [9] it was 0.217 µM; in [10] (setting [19]), 21.7 µM; in experiment [11], 0.5 µg/mL; in [12] (setting [19]), 29 µM; in experiment [13] (setting [19]), more than 29 µM. For the same compound, the “IC50” value worked out at 0.6 µg/mL in [14], 1 µg/mL in experiment [15], 0.006 µg/mL in experiment [16] and 0.5 µg/mL in experiment [17]. Further, the GI50 in experiment [3] (setting [19]) is more than 29 µM.
